Data from patent US20240366567A1, “PHARMACEUTICAL COMBINATIONS COMPRISING A KRAS G12C INHIBITOR AND USES THEREOF FOR THE TREATMENT OF CANCERS” (NOVARTIS AG, priority 2021, published 2024).

Key:
[1] = test system: KRAS G12C, PIK3CA and CDKN2A-mutated LU99 xenograft; experiment: LU99 xenograft, single agent and double, triple, quadruple combinations (Example 8); format: in vivo, mice; conditions: 7.5 mg/kg daily
[2] = test system: KRAS G12C and CDKN2A-mutated LU99 xenograft; experiment: LU99 xenograft, Compound A with ribociclib (Example 7); format: in vivo; conditions: LU99 xenograft in mice

Row | Compound | effect on tumor growth compared to the vehicle group [1] | effect on tumor growth [2]
1 | C[C@@H]1OCC2(CCN(c3cnc(Sc4ccnc(N)c4Cl)c(N)n3)CC2)[C@@H]1N [TNO155, (3S,4S)-8-(6-amino-5-((2-amino-3-chloropyridin-4-yl)thio)pyrazin-2-yl)-3-methyl-2-oxa-8-azaspiro[4.5]decan-4-amine, reference compound] | did not have any effect on tumor growth | 
2 | CN(C)C(=O)c1cc2cnc(Nc3ccc(N4CCNCC4)cn3)nc2n1C1CCCC1 [ribociclib, reference compound] |  | did not have any effect on tumor growth
